Assay results reported in ChEMBL document CHEMBL1128844, “The design, synthesis and evaluation of A,C,D-ring analogs of the fungal metabolite K-76 as complement inhibitors: a potential probe for the absolute stereochemistry at position 2” (1995).

Columns and labels:
Type in all cases: functional
Homo sapiens [1] = species: Homo sapiens; test: Ability to inhibit human complement-mediated erythrocyte lysis by classical pathway
Homo sapiens [2] = species: Homo sapiens; test: Ability to inhibit human complement-mediated erythrocyte lysis by alternate pathway
Homo sapiens [3] = species: Homo sapiens; test: Ability to inhibit human complement-mediated erythrocyte lysis by classical pathway at 2000 uM concentration

Which results are given for `COc1ccc(C(=O)O)c2c1CC(C)(C1CC[C@](C)(O)C(O)C1)O2` (stereo not given in full)?
IH50 (Homo sapiens [1]): 1600 µM; IH50 (Homo sapiens [2]): >2550 µM

`C=C(Cc1c(OC)ccc(C(=O)O)c1O)C1CC[C@](C)(O)C(O)C1` (stereo not given in full) was tested. Which inhibition at 2000 µM (Homo sapiens [3]) did it give?
Its inhibition at 2000 µM is 24%.

What does the source list for `C[C@@H]1CCC2C(C)(C)[C@H](O)[C@H](O)C[C@]2(C)[C@@]12Cc1c(O)cc(C(=O)[O-])c(C=O)c1O2.[Na+]` (stereo not given in full)?
IH50 (Homo sapiens [1]): 570 µM; IH50 (Homo sapiens [2]): 850 µM
